IC50 data for 19 compounds are collected here from US8338594B2, “Pyrrolotriazine derivatives useful for treating cancer through inhibition of aurora kinase” (Bayer HealthCare LLC, priority 2005, dated 2012).

For assay [1], the target named is T1, murine Aurora Kinase 1 (mAur1) (Mus musculus, UniProt O70126).
T1 construct: recombinant, GST-tagged mAur 1 (amino acids 67-345) that was co-expressed with human INCENP; GST; made in house
As to the kind of experiment: murine Aurora Kinase 1 (mAur1) biochemical Scintillation Proximity Assay. Conditions: SPA, biotinylated Peptide 830, 1 μM ATP, 12 nM GST-tagged mAur 1 co-expressed with human INCENP. How it is done:
(§1) Using a Scintillation Proximity Assay (SPA) format, the murine Aurora Kinase 1 (mAur1) and murine Aurora Kinase 2 (mAur2) biochemical assay measures the ability of mAur2 to phosphorylate the substrate, biotinylated Peptide 830 (DRT, Protein Sciences). Once radiolabeled by the enzyme, the biotinylated substrate is captured on streptavidin-coated SPA beads and the radioactivity, in proximity to the SPA beads, is measured. For the generation of IC50 curves, the reaction was performed in 96-well isoplates (Wallac 1450-514) under the following conditions: a 10 mM stock solution of compound (in 100% dimethylsulfoxide; DMSO) was diluted 10 fold in 100% DMSO. Compounds were then serially diluted, 1:5, for an eight point dose curve, in 100% DMSO. A volume of 1 μL of the diluted compound was added to the reaction buffer that consisted of 25 mM HEPES pH 7.5, 1 mM MnCl2, 1 mM MgCl2, 1 mM DTT, 0.01% Tween20. A mixture with a final concentration per well of 1 μM cold ATP, 0.1 μCi ^33P-ATP (Amersham AH9968) and 1 μM biotinylated Peptide 830 was then added. The reaction was initiated with the addition of either recombinant, GST-tagged mAur 1 (amino acids 67-345) that was co-expressed with human INCENP (amino acids 704-919) (DRT, Protein Sciences) at a final concentration of 12 nM or N-terminal His-tagged mAur2 (amino acids 98-395; DRT, Protein Sciences) at a final concentration of 20 nM. The final reaction volume in each well was 100 μL and the final compound concentration ranged from 10 μM-[…] in 1% DMSO. The reaction mixture was allowed to incubate for 1-2 hours with gentle agitation at 25° C. To terminate the reaction, streptavidin-coated SPA beads (Amersham RPNQ0007; 50 μL of 0.5 mg beads dissolved in 165 mM EDTA) were then added to each well and incubation proceeded for an additional 15 minutes at 25° C. The plate was then centrifuged for ten minutes at 2000 rpm. Phosphorylation of the peptide substrate was measured using a Wallac 1450 Microbeta Plus Liquid Scintillation Counter.

Assay [2] has as its target T2, murine Aurora Kinase 2 (mAur2) (Mus musculus, UniProt P97477).
T2 construct: N-terminal His-tagged mAur2 (amino acids 98-395; DRT, Protein Sciences); His (N); made in house
T2 sequence (P97477 98-395): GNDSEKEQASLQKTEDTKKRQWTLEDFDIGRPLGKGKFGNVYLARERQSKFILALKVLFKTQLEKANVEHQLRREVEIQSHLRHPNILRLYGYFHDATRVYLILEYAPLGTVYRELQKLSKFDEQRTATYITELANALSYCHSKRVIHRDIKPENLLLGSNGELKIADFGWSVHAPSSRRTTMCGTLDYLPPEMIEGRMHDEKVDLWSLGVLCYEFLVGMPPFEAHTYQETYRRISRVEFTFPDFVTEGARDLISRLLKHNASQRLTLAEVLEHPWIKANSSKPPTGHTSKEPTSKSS
As to the kind of experiment: murine Aurora Kinase 2 (mAur2) biochemical Scintillation Proximity Assay. Conditions: SPA, biotinylated Peptide 830, 1 μM ATP, 20 nM His-tagged mAur2. The method, then: as §1
Background: Scintillation proximity formats need no separation of bound from free tracer.

T1 sequence (O70126 67-345): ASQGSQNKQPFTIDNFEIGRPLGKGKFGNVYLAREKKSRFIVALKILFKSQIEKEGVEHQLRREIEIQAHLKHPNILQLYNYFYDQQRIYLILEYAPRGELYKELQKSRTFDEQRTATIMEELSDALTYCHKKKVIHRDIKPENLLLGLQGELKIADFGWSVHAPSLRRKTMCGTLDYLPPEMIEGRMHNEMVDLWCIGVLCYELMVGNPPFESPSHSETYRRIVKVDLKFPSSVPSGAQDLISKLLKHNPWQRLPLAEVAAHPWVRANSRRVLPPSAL
T1 sequence (Q9NQS7 704-918 partner): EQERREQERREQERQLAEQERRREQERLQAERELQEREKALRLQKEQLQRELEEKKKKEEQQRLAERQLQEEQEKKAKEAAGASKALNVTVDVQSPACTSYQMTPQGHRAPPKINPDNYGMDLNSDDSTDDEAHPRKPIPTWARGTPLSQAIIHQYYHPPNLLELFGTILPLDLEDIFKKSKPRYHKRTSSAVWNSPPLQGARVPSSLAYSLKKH

Turning to `Nc1ncnn2cc(C(=O)NCC(F)(F)F)c(-c3ccc(Nc4nc5ccccc5[nH]4)cc3)c12` [Example 1, 4-amino-5-[4-(1H-benzimidazol-2-ylamino)phenyl]-N-(2,2,2-trifluoroethyl)pyrrolo[2,1-f][1,2,4]triazine-6-carboxamide], the IC50 in assay [1] and in assay [2] was below 0.1 µM throughout.

Regarding `Nc1ncnn2cc(C(=O)NCC(F)(F)F)c(-c3ccc(Nc4nc5cc(F)cc(F)c5[nH]4)cc3)c12` [Example 6, 4-amino-5-{4-[(5,7-difluoro-1H-benzimidazol-2-yl)amino]phenyl}-N-(2,2,2-trifluoroethyl)pyrrolo[2,1-f][1,2,4]triazine-6-carboxamide], the IC50 in assay [1] and in assay [2] was below 0.1 µM throughout.

With `COc1ccc2nc(Nc3ccc(-c4c(C(=O)NCC(F)(F)F)cn5ncnc(N)c45)cc3)[nH]c2c1` [Example 8, 4-amino-5-{4-[(6-methoxy-1H-benzimidazol-2-yl)amino]phenyl}-N-(2,2,2-trifluoroethyl)pyrrolo[2,1-f][1,2,4]triazine-6-carboxamide], the IC50 in assay [1] and in assay [2] was below 0.1 µM in each case.

Consider `Nc1ncnn2cc(C(=O)NCC(F)(F)F)c(-c3ccc(Nc4nc5ccc(Br)cc5[nH]4)cc3)c12` [Example 9, 4-amino-5-{4-[(6-bromo-1H-benzimidazol-2-yl)amino]phenyl}-N-(2,2,2-trifluoroethyl)pyrrolo[2,1-f][1,2,4]triazine-6-carboxamide], for which the IC50 in assay [1] and in assay [2] was below 0.1 µM each time.

As to `Nc1ncnn2cc(C(=O)NCC(F)(F)F)c(-c3ccc(Nc4nc5cc(F)c(F)cc5[nH]4)cc3)c12` [Example 14, 4-amino-5-{4-[(5,6-difluoro-1H-benzimidazol-2-yl)amino]phenyl}-N-(2,2,2-trifluoroethyl)pyrrolo[2,1-f][1,2,4]triazine-6-carboxamide], the IC50 in assay [1] and in assay [2] was below 0.1 µM throughout.

As to `Nc1ncnn2cc(C(=O)NCC(F)(F)F)c(-c3ccc(Nc4nc5cscc5[nH]4)cc3)c12` [Example 16, 4-amino-5-[4-(1H-thieno[3,4-d]imidazol-2-ylamino)phenyl]-N-(2,2,2-trifluoroethyl)pyrrolo[2,1-f][1,2,4]triazine-6-carboxamide], the IC50 in assay [1] and in assay [2] was below 0.1 µM throughout.

On to `Cc1cccc2nc(Nc3ccc(-c4c(C(=O)NCC(F)(F)F)cn5ncnc(N)c45)cc3)[nH]c12` [Example 22, 4-amino-5-{4-[(7-methyl-1H-benzimidazol-2-yl)amino]phenyl}-N-(2,2,2-trifluoroethyl)pyrrolo[2,1-f][1,2,4]triazine-6-carboxamide], for which the IC50 in assay [1] and in assay [2] was below 0.1 µM throughout.

In the case of `Nc1ncnn2cc(C(=O)NCC(F)(F)F)c(-c3ccc(Nc4nc5ccc([N+](=O)[O-])cc5[nH]4)cc3)c12` [Example 23, 4-amino-5-{4-[(6-nitro-1H-benzimidazol-2-yl)amino]phenyl}-N-(2,2,2-trifluoroethyl)pyrrolo[2,1-f][1,2,4]triazine-6-carboxamide], the IC50 in assay [1] and in assay [2] was below 0.1 µM each time.

Turning to `Nc1ncnn2cc(C(=O)NCC(F)(F)F)c(-c3ccc(Nc4nc5cc(I)cnc5[nH]4)cc3)c12` [Example 25, 4-amino-5-{4-[(6-iodo-3H-imidazo[4,5-b]pyridin-2-yl)amino]phenyl}-N-(2,2,2-trifluoroethyl)pyrrolo[2,1-f][1,2,4]triazine-6-carboxamide], the IC50 in assay [1] and in assay [2] was below 0.1 µM throughout.

On to `Nc1ncnn2cc(C(=O)NCC(F)(F)F)c(-c3ccc(Nc4nc5ccc(Cl)nc5[nH]4)cc3)c12` [Example 26, 4-amino-5-{4-[(5-chloro-3H-imidazo[4,5-b]pyridin-2-yl)amino]phenyl}-N-(2,2,2-trifluoroethyl)pyrrolo[2,1-f][1,2,4]triazine-6-carboxamide], for which the IC50 in assay [1] and in assay [2] was below 0.1 µM each time.

For the compound `Nc1ncnn2cc(C(=O)NCC(F)(F)F)c(-c3ccc(Nc4nc5ccc(Oc6ccccc6F)c(F)c5[nH]4)cc3)c12` [Example 39, 4-amino-5-(4-{[7-fluoro-6-(2-fluorophenoxy)-1H-benzimidazol-2-yl]amino}phenyl)-N-(2,2,2-trifluoroethyl)pyrrolo[2,1-f][1,2,4]triazine-6-carboxamide], the half-maximal inhibitory concentration (IC50) in assay [1] and in assay [2] was below 0.1 µM throughout.

In the case of `Nc1ncnn2cc(C(=O)NCC(F)(F)F)c(-c3ccc(Nc4nc5ccc(Oc6cccc(F)c6)c(F)c5[nH]4)cc3)c12` [Example 40, 4-amino-5-(4-{[7-fluoro-6-(3-fluorophenoxy)-1H-benzimidazol-2-yl]amino}phenyl)-N-(2,2,2-trifluoroethyl)pyrrolo[2,1-f][1,2,4]triazine-6-carboxamide], the IC50 in assay [1] and in assay [2] was below 0.1 µM in each case.

Regarding `Cc1cccc(Oc2ccc3nc(Nc4ccc(-c5c(C(=O)NCC(F)(F)F)cn6ncnc(N)c56)cc4)[nH]c3c2F)c1` [Example 42, 4-amino-5-(4-{[7-fluoro-6-(3-methylphenoxy)-1H-benzimidazol-2-yl]amino}phenyl)-N-(2,2,2-trifluoroethyl)pyrrolo[2,1-f][1,2,4]triazine-6-carboxamide], the IC50 in assay [1] and in assay [2] was below 0.1 µM in each case.

For the compound `Cc1ncnc2[nH]c(Nc3ccc(-c4c(C(=O)NCC(F)(F)F)cn5ncnc(N)c45)cc3)nc12` [Example 45, 4-amino-5-{4-[(6-methyl-9H-purin-8-yl)amino]phenyl}-N-(2,2,2-trifluoroethyl)pyrrolo[2,1-f][1,2,4]triazine-6-carboxamide], the IC50 in assay [1] and in assay [2] was below 0.1 µM in each case.

For the compound `Nc1ncnn2cc(C(=O)NCC(F)(F)F)c(-c3ccc(Nc4nc5ccc(NC6CCCCC6)nc5[nH]4)cc3)c12` [Example 48, 4-amino-5-(4-{[5-(cyclohexylamino)-3H-imidazo[4,5-b]pyridin-2-yl]amino}phenyl)-N-(2,2,2-trifluoroethyl)pyrrolo[2,1-f][1,2,4]triazine-6-carboxamide], the IC50 in assay [1] and in assay [2] was below 0.1 µM in each case.

Consider `Cc1ccc(Oc2ccc3nc(Nc4ccc(-c5c(C(=O)NCC(F)(F)F)cn6ncnc(N)c56)cc4)[nH]c3n2)cc1C` [Example 49, 4-amino-5-(4-{[5-(3,4-dimethylphenoxy)-3H-imidazo[4,5-b]pyridin-2-yl]amino}phenyl)-N-(2,2,2-trifluoroethyl)pyrrolo[2,1-f][1,2,4]triazine-6-carboxamide], for which the IC50 in assay [1] and in assay [2] was below 0.1 µM in each case.

Regarding `Nc1ncnn2cc(C(=O)NCC(F)(F)F)c(-c3ccc(Nc4nc5ccc(Sc6cccc(F)c6)nc5[nH]4)cc3)c12` [Example 50, 4-amino-5-[4-({5-[(3-fluorophenyl)thio]-3H-imidazo[4,5-b]pyridin-2-yl}amino)phenyl]-N-(2,2,2-trifluoroethyl)pyrrolo[2,1-f][1,2,4]triazine-6-carboxamide], the IC50 in assay [1] and in assay [2] was below 0.1 µM each time.

Consider `CCCNc1ccc2nc(Nc3ccc(-c4c(C(=O)NCC(F)(F)F)cn5ncnc(N)c45)cc3)[nH]c2n1` [Example 55, 4-amino-5-(4-{[5-(propylamino)-3H-imidazo[4,5-b]pyridin-2-yl]amino}phenyl)-N-(2,2,2-trifluoroethyl)pyrrolo[2,1-f][1,2,4]triazine-6-carboxamide], for which the IC50 in assay [1] and in assay [2] was below 0.1 µM throughout.

As for `Nc1ncnn2cc(C(=O)NCC(F)(F)F)c(-c3ccc(Nc4nc5cc6c(cc5[nH]4)OC(F)(F)O6)c(F)c3)c12` [Example 60, 4-amino-5-{4-[(2,2-difluoro-5H-[1,3]dioxolo[4,5-f]benzimidazol-6-yl)amino]-3-fluorophenyl}-N-(2,2,2-trifluoroethyl)pyrrolo[2,1-f][1,2,4]triazine-6-carboxamide], the IC50 in assay [1] and in assay [2] was below 0.1 µM in each case.
